Test results published in the NIST ThermoML archive (doi:10.1016/j.tca.2012.12.008).

Assay: xn = mol fraction of the nth substance listed
Details: 101 kPa, Liquid; for viscosity: Capillary tube (Ostwald / Ubbelohde) method; for mass density: Vibrating tube method

CCCCCC(C)O (stereo not drawn) [2-heptanol] + CCC(C)=O
Details | mass density, 298.15 K [kg/m3] | mass density, 303.15 K [kg/m3] | mass density, 308.15 K [kg/m3] | mass density, 313.15 K [kg/m3] | viscosity, 298.15 K [mPa·s] | viscosity, 303.15 K [mPa·s] | viscosity, 308.15 K [mPa·s] | viscosity, 313.15 K [mPa·s]
x2 = 0 | 813.18 | 809.26 | 805.01 | 801.14 | 5.003 | 4.152 | 3.478 | 2.853
x2 = 0.0834 | 811.4 | 807.5 | 803.22 | 799.4 | 3.89 | 3.282 | 2.749 | 2.282
x2 = 0.1619 | 809.92 | 805.97 | 801.7 | 797.73 | 3.091 | 2.614 | 2.21 | 1.846
x2 = 0.2426 | 808.4 | 804.47 | 800.16 | 796.12 | 2.441 | 2.083 | 1.758 | 1.478
x2 = 0.3491 | 806.63 | 802.53 | 798.16 | 794.11 | 1.793 | 1.528 | 1.303 | 1.095
x2 = 0.4375 | 805.3 | 801.03 | 796.6 | 792.53 | 1.367 | 1.184 | 1.021 | 0.895
x2 = 0.5661 | 803.5 | 799.1 | 794.57 | 790.44 | 0.901 | 0.818 | 0.746 | 0.684
x2 = 0.6502 | 802.41 | 797.92 | 793.35 | 789.19 | 0.712 | 0.659 | 0.613 | 0.581
x2 = 0.7371 | 801.4 | 796.84 | 792.26 | 788.05 | 0.592 | 0.552 | 0.513 | 0.481
x2 = 0.8498 | 800.4 | 795.59 | 790.95 | 786.69 | 0.451 | 0.434 | 0.416 | 0.399
x2 = 0.9401 | 799.73 | 794.95 | 790.35 | 786 | 0.398 | 0.386 | 0.373 | 0.361
